Results as given in ChEMBL document CHEMBL1147517, “Potent and selective inhibitors of bacterial methionyl tRNA synthetase derived from an oxazolone-dipeptide scaffold” (Bioorg Med Chem Lett, 2004).

What was measured:
[1] = molecular target: T1, Methionine--tRNA ligase, cytoplasmic (Homo sapiens) (UniProt P56192); assay: Inhibition of human methionyl-tRNA synthetase (fMetRS) at the concentration of 10 uM
T1 sequence (whole entry): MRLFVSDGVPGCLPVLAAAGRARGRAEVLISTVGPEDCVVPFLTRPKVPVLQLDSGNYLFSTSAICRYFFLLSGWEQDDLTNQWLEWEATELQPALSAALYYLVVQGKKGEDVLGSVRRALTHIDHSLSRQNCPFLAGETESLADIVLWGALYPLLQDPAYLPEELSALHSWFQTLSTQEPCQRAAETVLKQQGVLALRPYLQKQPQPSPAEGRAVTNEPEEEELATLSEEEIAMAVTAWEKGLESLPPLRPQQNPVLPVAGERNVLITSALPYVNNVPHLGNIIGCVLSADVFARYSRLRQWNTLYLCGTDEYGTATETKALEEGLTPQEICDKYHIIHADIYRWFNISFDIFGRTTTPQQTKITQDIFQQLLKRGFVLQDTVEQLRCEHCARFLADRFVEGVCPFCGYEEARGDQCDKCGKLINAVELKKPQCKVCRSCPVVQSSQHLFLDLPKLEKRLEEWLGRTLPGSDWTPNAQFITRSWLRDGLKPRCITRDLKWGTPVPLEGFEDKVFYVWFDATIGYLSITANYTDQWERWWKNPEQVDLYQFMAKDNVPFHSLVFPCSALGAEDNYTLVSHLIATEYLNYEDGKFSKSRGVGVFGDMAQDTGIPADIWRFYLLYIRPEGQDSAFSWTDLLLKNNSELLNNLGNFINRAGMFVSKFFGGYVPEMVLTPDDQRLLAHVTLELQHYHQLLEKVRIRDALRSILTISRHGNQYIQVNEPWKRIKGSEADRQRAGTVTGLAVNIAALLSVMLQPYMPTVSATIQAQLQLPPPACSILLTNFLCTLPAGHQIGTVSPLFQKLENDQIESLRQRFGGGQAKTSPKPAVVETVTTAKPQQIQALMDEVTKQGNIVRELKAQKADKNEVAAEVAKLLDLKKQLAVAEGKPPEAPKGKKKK

[2] = tested on: Methionine--tRNA ligase (Enterococcus faecalis); assay: Inhibition of Enterococci faecalis methionyl-tRNA synthetase (EfMetRS) at the concentration of 10 uM
[3] = tested on: Methionine--tRNA ligase (Staphylococcus aureus); assay: Inhibition of Staphylococcus aureus methionyl-tRNA synthetase (SaMetRS) at the concentration of 10 uM
[4] = molecular target: T2, Methionine--tRNA ligase, cytoplasmic (Homo sapiens, UniProt P56192); assay: Inhibition of human methionyl-tRNA synthetase (fMetRS)
T2 sequence (P56192 whole entry): T1 sequence (whole entry)

[5] = tested on: Methionine--tRNA ligase (Enterococcus faecalis); assay: Inhibition of Enterococci faecalis methionyl-tRNA synthetase (EfMetRS); Inactive

Row | Compound | inhibition [1] | inhibition [2] | inhibition [3] | IC50 [4] | IC50 [5]
1 | NC(=O)[C@H](Cc1ccc(O)cc1)NC(=O)C1CCCCN1/C=C1\N=C(c2ccc(Cl)cc2Cl)OC1=O (some centres undefined) | 88% | 60% | 73% | – | –
2 | NC(=O)[C@H](Cc1ccc(O)cc1)NC(=O)C1CCCN(/C=C2\N=C(c3ccc(Cl)cc3Cl)OC2=O)C1 (some centres undefined) | 20% | 2% | 43% | – | –
3 | NC(=O)[C@H](Cc1ccc(O)cc1)NC(=O)C1CCN(/C=C2\N=C(c3ccc(Br)cc3)OC2=O)CC1 | 6% | 7% | 1% | – | –
4 | NC(=O)[C@H](Cc1ccc(O)cc1)NC(=O)[C@@H]1CCCN1/C=C1\N=C(c2ccc(Br)cc2)OC1=O | 5% | – | – | – | –
5 | NC(=O)[C@H](Cc1ccc(O)cc1)NC(=O)[C@@H]1CCCN1/C=C1\N=C(c2ccc(Cl)cc2Cl)OC1=O | – | – | – | > 100 µM | –
6 | CCC/C(=C1/N=C(c2ccc(Br)cc2)OC1=O)N1CCC[C@H]1C(=O)N[C@@H](Cc1ccc(O)cc1)C(N)=O | – | – | – | > 100 µM | –
7 | CCC/C(=C1/N=C(c2ccc(Br)cc2)OC1=O)N1CC[C@H]1C(=O)N[C@@H](Cc1ccc(O)cc1)C(N)=O | – | – | – | > 100 µM | –
8 | NC(=O)[C@H](Cc1ccc(O)cc1)NC(=O)[C@@H]1CCN1/C=C1\N=C(c2ccc(Br)cc2)OC1=O | – | – | – | > 100 µM | –
9 | CC/C(=C1/N=C(c2ccc(Br)cc2)OC1=O)N1CCC[C@H]1C(=O)N[C@@H](Cc1ccc(O)cc1)C(N)=O | – | – | – | > 100 µM | –
10 | NC(=O)[C@H](Cc1ccc(O)cc1)NC(=O)C1CCCCN1/C=C1\N=C(c2ccc(Br)cc2)OC1=O (some centres undefined) | 19% | 7% | 55% | – | –
11 | NC(=O)[C@H](Cc1ccc(O)cc1)NC(=O)C1CCN(/C=C2\N=C(c3ccc(Cl)cc3Cl)OC2=O)CC1 | 5% | 5% | 3% | – | –
12 | NC(=O)[C@H](Cc1ccc(O)cc1)NC(=O)C1CCCN(/C=C2\N=C(c3ccc(Br)cc3)OC2=O)C1 (some centres undefined) | 23% | – | 39% | – | Not Active
